Laboratory results reported in EP0472220A1, “Bradykinin antagonists” (SYNTEX (U.S.A.) INC., priority 1990, dated 1992).
Values after ≈ are worked out from the molar mass of the structure shown. Where a SMILES comes first, the peptide text is derived from it. Where no end group is shown, it is not given here. [ ]: non-standard residue; d: D form. d(hArg)(Nω,Nω'-(CH2CF3)2) = N[C@H](CCCCNC(=NCC(F)(F)F)NCC(F)(F)F)C(=O)O; Oic = O=C(O)[C@@H]1C[C@@H]2CCCC[C@@H]2N1; Arg(Me2s) = CN=C(NC)NCCC[C@H](N)C(=O)O; Arg(Et) = CCNC(=N)NCCC[C@H](N)C(=O)O; Arg(Me) = CNC(=N)NCCC[C@H](N)C(=O)O; Hyp = O=C(O)[C@@H]1C[C@@H](O)CN1; dTic = O=C(O)[C@H]1Cc2ccccc2CN1; 2Thi = N[C@@H](Cc1cccs1)C(=O)O

Columns and labels:
[1] = biological target: T1, Bradykinin Receptor (Cavia porcellus, UniProt O70526); test: Guinea pig ileum bradykinin receptor binding assay; settings: concentration of analog that reduced the binding of 100 pM [³H]bradykinin by 50%; guinea pig ileum membrane preparation; read-out: IC₅₀
T1 construct: A 5 cm section of the distal ileum was removed, rinsed in cold saline and homogenized; from tissue; host or cells: guinea pig distal ileum, crude membrane pellet
T1 sequence (O70526 1-372): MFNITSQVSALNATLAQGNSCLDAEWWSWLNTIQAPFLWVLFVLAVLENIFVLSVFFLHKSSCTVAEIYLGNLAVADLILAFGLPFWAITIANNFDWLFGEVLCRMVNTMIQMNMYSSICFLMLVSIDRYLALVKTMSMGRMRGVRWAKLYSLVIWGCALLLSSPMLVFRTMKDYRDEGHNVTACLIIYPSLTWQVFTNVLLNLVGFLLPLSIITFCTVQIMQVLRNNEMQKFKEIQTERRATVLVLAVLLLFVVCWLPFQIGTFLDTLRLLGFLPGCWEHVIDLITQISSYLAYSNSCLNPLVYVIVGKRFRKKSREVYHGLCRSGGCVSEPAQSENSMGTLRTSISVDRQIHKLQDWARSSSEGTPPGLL
Experimental: The bradykinin analogs were assayed using a cell-free membrane receptor binding assay described by Innis et al Proc. Natl. Acad. Sci. USA 1981, 78:2630. Male Hartley guinea pigs (400-500g, Charles River) were euthanized by CO₂ asphyxiation. A 5 cm section of the distal ileum was removed, rinsed in cold saline and homogenized in 20 volumes of cold 20 mM TES buffer, pH 6.8, 1mM 1,10-phenanthroline using a Tissumizer (Tekmar) at 75% maximum speed for 12 seconds. The homogenate was centrifuged at 15,000 X g for 25 minutes at 4°C. The crude membrane pellet was washed once in 20 volumes of fresh homogenizing buffer and resuspended in assay buffer (25 mM TES buffer, pH 6.8, 1 mM dithiothreitol, 1 mM 1,10-phenanthroline, 1 µM captopril, 0.014% bacitracin and 0.1% bovine serum albumin) at 100 mL buffer per gram issue. The membrane preparation was quick-frozen in liquid N₂ and stored at -80°C.
The reaction mixture for the receptor binding assay contained bradykinin analog (1-1000 nM), 100 pM [³H]bradykinin (88 Ci/mmol) and 200 µl membrane preparation in a total volume of 500 µl assay buffer. Reactions were incubated at room temperature for 90 minutes and membrane-bound [³H]bradykinin was isolated by filtration through PEI-coated glass fiber filters. The filters were dried and counted for radioactivity in a liquid scintillation counter. Specific binding was calcuated by subtracting the nonspecific binding (determined in a parallel set of assays in the presence of 1 µM unlabeled bradykinin) from the total radioactivity bound to the filters. All incubations were performed in duplicate and the data expressed as % reduction in the specific binding of [³H]bradykinin. The IC₅₀ (the concentration of analog that reduced the binding of 100 pM [³H]bradykinin by 50%) was determined graphically from a plot of % reduction vs. log concentration.

[2] = test system: rat peritoneal mast cells; settings: rat mixed peritoneal cells, 15 minutes, 35°C
Experimental: Mixed peritoneal cells were recovered from 3 or 4 male Sprague-Dawley rats (350 g, Iffa-Credo, France) by intraperitoneal injection of 10 mL of 0.9% NaCl (containing 50 µg/mL heparin). After gentle massage of the abdominal cavity for 1 minute, the peritoneal cells were removed, pooled and centrifuged for 5 minutes at 300 g. After three rinses in Krebs-Ringer Buffer (KRB: 141.9 mM NaCl; 4.7 mM KCl; 1.0 mM CaCl₂, 11.2 mM MgSO₄; 2.5 mM Na₂HPO₄; 0.6 mM KH₂PO₄), the cells were counted under a microscope and diluted in the appropriate volume of KRB to achieve a cell density of about 2 x 10⁶ cells per mL. Aliquots of 0.5 mL were prewarmed with 0.4 mL Ca⁺⁺-free KRB for 5 minutes at 35°C and 0.1 mL of the appropriate solution of the drugs tested was added or its vehicle alone. 15 minutes later, the reaction was stopped by the addition of 2.5 mL ice-cold KRB and chilling on ice.
After centrifugation of the cell suspension, the histamine content of the supernatant was assayed fluorimetrically by the method of Shore et al., (Immunol. 1959, 127:182) omitting the extraction procedure (Excitation 365 nm; Emission 450 nm).
The total histamine content of the cell suspension was determined after sonication (2 minutes - 5 second pulse frequency).
The spontaneous histamine release was subtracted from all the values measured.

[3] = in vitro
Experimental: (§1) The ability of bradykinin antagonists to resist proteolysis was determined by measuring the half-life of the analogs in plasma using HPLC. Rat blood was collected into heparin-containing tubes and centrifuged at 2000 X g for 10 minutes at 4°C to separate the plasma. Plasma samples were supplemented with bradykinin analogs (60 µM) and incubated at 37°C. At various times during incubation, an aliquot was removed and the reaction was stopped with 10% trifluoroacetic acid (TFA). The reaction mixture was applied to a 1 mL C₁₈ solid-phase extraction column (Baker) preconditioned with methanol and 10% TEA in H₂O. The analog was eluted with 3 x 100 µl of 15% acetonitrile (CH₃CN), 85% H₂O containing 0.2% TFA. The eluent was dried in a Speed-Vac concentrator (Savant) and redissolved in 300 µL of mobile phase consisting of various proportions of CH₃CN and H₂O containing 0.2% TEA depending on the analog. The sample was injected onto a Pecosphere® (Perkin-Elmer) 3 µm C₁₈ cartridge column (3.3 x 0.46 cm) and eluted with mobile phase at a flow rate of 1 ml/min using a Waters HPLC system. The analog was monitored by uv absorption at 210 nm and the results analyzed with a Hewlett-Packard integrator. Peak height was used to quantitate the amount of analog present in the sample. Plasma degradation followed first-order kinetics and the t1/2 (the time required for half the sample to be degraded) was determined graphically from a plot of log % analog remaining vs. incubation time.

[4] = in vitro; remark: listed apart in the source
Experimental: as §1

[5] = Ferreira et al. 1967; cited from earlier work
[6] = test system: Bradykinin-induced Hypotension; test: Protection against bradykinin-induced hypotension in rats; assay type: in vivo, Male Sprague-Dawley rats; settings: co-administration (50-200 nmol/kg) with bradykinin (0.4 µg/kg) via carotid cannula, anesthetized rats
Experimental: Male Sprague-Dawley rats (200-300 g, Charles River) were anesthetized with 40 mg/kg ip sodium pentobarbital. The left femoral artery and vein were fitted with polyethylene cannulas (Intramedic PE-50) and the left carotid artery was fitted with a PE-20 cannula. […] The femoral arterial cannula was connected to a blood pressure transducer (Statham) and Beckman dynograph for recording systolic and diastolic pressure. The femoral venous cannula was used to administer maintenance anesthesia. […] All cannulas were filled with heparinized (40 U/mL) saline to maintain patency. Rats were placed on a 37°C water blanket and allowed to reach a stable anesthetic plane characterized by a mean arterial blood pressure of ≧90 mm Hg and a positive response to a toe pinch.

CCN=C(N)NCCC[C@H](NC(=O)[C@H](N)CCCCNC(=NCC(F)(F)F)NCC(F)(F)F)C(=O)N1CCC[C@H]1C(=O)N1C[C@H](O)C[C@H]1C(=O)NCC(=O)N[C@@H](Cc1ccccc1)C(=O)N[C@@H](CO)C(=O)N1Cc2ccccc2C[C@@H]1C(=O)N1[C@H](C(=O)N[C@@H](CCCNC(=NC)NC)C(=O)O)C[C@@H]2CCCC[C@@H]21 [Compound 90, D-hArg(CH₂CF₃)₂-Arg(Et)-Pro-Hyp-Gly-Phe-Ser-D-Tic-Oic-Arg(Me₂)] (H-[d(hArg)(Nω,Nω'-(CH2CF3)2)][Arg(Et)]P[Hyp]GFS[dTic][Oic][Arg(Me2s)]-OH)
IC50 [1]: 0.04 nM
EC50 (histamine release) [2]: 216 µg/mL (≈ 141 µM)

CN=C(NC)NCCC[C@H](NC(=O)[C@@H]1C[C@@H]2CCCC[C@@H]2N1C(=O)[C@H]1Cc2ccccc2CN1C(=O)[C@H](CO)NC(=O)[C@H](Cc1ccccc1)NC(=O)CNC(=O)[C@@H]1C[C@@H](O)CN1C(=O)[C@@H]1CCCN1C(=O)[C@H](CCCNC(=NC)NC)NC(=O)[C@H](N)CCCCNC(=NCC(F)(F)F)NCC(F)(F)F)C(=O)O [Compound 89, D-hArg(CH₂CF₃)₂-Arg(Me₂)-Pro-Hyp-Gly-Phe-Ser-D-Tic-Oic-Arg(Me₂)] (H-[d(hArg)(Nω,Nω'-(CH2CF3)2)][Arg(Me2s)]P[Hyp]GFS[dTic][Oic][Arg(Me2s)]-OH)
IC50 [1]: 0.07 nM
EC50 (histamine release) [2]: 312 µg/mL (≈ 204 µM)

CN=C(N)NCCC[C@H](NC(=O)[C@@H]1CCCN1C(=O)[C@H]1Cc2ccccc2CN1C(=O)[C@H](CO)NC(=O)[C@H](Cc1ccccc1)NC(=O)CNC(=O)[C@@H]1C[C@@H](O)CN1C(=O)[C@@H]1CCCN1C(=O)[C@H](CCCNC(N)=NC)NC(=O)[C@H](N)CCCCNC(=NCC(F)(F)F)NCC(F)(F)F)C(=O)O [Compound 21, D-hArg(CH₂CF₃)₂-Arg(Me)-Pro-Hyp-Gly-Phe-Ser-D-Tic-Pro-Arg(Me)] (H-[d(hArg)(Nω,Nω'-(CH2CF3)2)][Arg(Me)]P[Hyp]GFS[dTic]P[Arg(Me)]-OH)
IC50 [1]: 2.2 nM

N=C(N)NCCC[C@H](NC(=O)[C@@H]1CCCN1C(=O)[C@H]1Cc2ccccc2CN1C(=O)[C@H](CO)NC(=O)[C@H](Cc1cccs1)NC(=O)CNC(=O)[C@@H]1C[C@@H](O)CN1C(=O)[C@@H]1CCCN1C(=O)[C@H](CCCNC(=N)N)NC(=O)[C@H](N)CCCCNC(=NCC(F)(F)F)NCC(F)(F)F)C(=O)O [Compound 75, D-hArg(CH₂CF₃)₂-Arg-Pro-Hyp-Gly-Thi-Ser-D-Tic-Pro-Arg] (H-[d(hArg)(Nω,Nω'-(CH2CF3)2)]RP[Hyp]G[2Thi]S[dTic]PR-OH)
IC50 [1]: 1 nM

CN=C(N)NCCC[C@H](NC(=O)[C@@H]1C[C@@H]2CCCC[C@@H]2N1C(=O)[C@H]1Cc2ccccc2CN1C(=O)[C@H](CO)NC(=O)[C@H](Cc1ccccc1)NC(=O)CNC(=O)[C@@H]1C[C@@H](O)CN1C(=O)[C@@H]1CCCN1C(=O)[C@H](CCCNC(N)=NC)NC(=O)[C@H](N)CCCCNC(=NCC(F)(F)F)NCC(F)(F)F)C(=O)O [Compound 91, D-hArg(CH₂CF₃)₂-Arg(Me)-Pro-Hyp-Gly-Phe-Ser-D-Tic-Oic-Arg(Me)] (H-[d(hArg)(Nω,Nω'-(CH2CF3)2)][Arg(Me)]P[Hyp]GFS[dTic][Oic][Arg(Me)]-OH)
half-life at 60 µM ([3]; mouse, plasma): > 2 h
IC50 [1]: 0.05 nM
half-life at 60 µM ([4]; human, plasma): > 2 h

CN=C(N)NCCC[C@H](NC(=O)[C@@H]1C[C@@H]2CCCC[C@@H]2N1C(=O)[C@H]1Cc2ccccc2CN1C(=O)[C@H](CO)NC(=O)[C@H](Cc1cccs1)NC(=O)CNC(=O)[C@@H]1C[C@@H](O)CN1C(=O)[C@@H]1CCCN1C(=O)[C@H](CCCNC(N)=NC)NC(=O)[C@H](N)CCCCNC(=NCC(F)(F)F)NCC(F)(F)F)C(=O)O [Compound 22, D-hArg(CH₂CF₃)₂-Arg(Me)-Pro-Hyp-Gly-Thi-Ser-D-Tic-Oic-Arg(Me)]
half-life at 60 µM ([3]; mouse, plasma): > 2 h
IC50 [1]: 0.05 nM
half-life at 60 µM ([4]; human, plasma): > 2 h

CN=C(NC)NCCC[C@H](NC(=O)[C@@H]1C[C@@H]2CCCC[C@@H]2N1C(=O)[C@H]1Cc2ccccc2CN1C(=O)[C@H](CO)NC(=O)[C@H](Cc1cccs1)NC(=O)CNC(=O)[C@@H]1C[C@@H](O)CN1C(=O)[C@@H]1CCCN1C(=O)[C@H](CCCNC(=NC)NC)NC(=O)[C@H](N)CCCCNC(=NCC(F)(F)F)NCC(F)(F)F)C(=O)O [Compound 81, D-hArg(CH₂CF₃)₂-Arg(Me₂)-Pro-Hyp-Gly-Thi-Ser-D-Tic-Oic-Arg(Me₂)]
IC50 [1]: 0.15 nM

RPPGFSPFR [bradykinin]
half-life in the systemic circulation [5]: less than 30 seconds
half-life at 60 µM [3]: < 0.0833 h
half-life at 60 µM ([3]; rat, plasma): < 0.0833 h
half-life at 60 µM [4]: < 0.0833 h

CN=C(N)NCCC[C@H](NC(=O)[C@H](Cc1ccc(OC)cc1)NC(=O)[C@@H](Cc1ccccc1)NC(=O)[C@H](CO)NC(=O)[C@H](Cc1ccccc1)NC(=O)CNC(=O)[C@@H]1C[C@@H](O)CN1C(=O)[C@@H]1CCCN1C(=O)[C@H](CCCNC(=N)N)NC(=O)[C@H](N)CCCCNC(=NCC(F)(F)F)NCC(F)(F)F)C(=O)O [Compound 4, D-hArg(CH₂CF₃)₂-Arg-Pro-Hyp-Gly-Phe-Ser-D-Phe-Tyr(Me)-Arg(Me)] (H-[d(hArg)(Nω,Nω'-(CH2CF3)2)]RP[Hyp]GFS[dF]Y(Me)[Arg(Me)]-OH)
protection against bradykinin-induced hypotension (drop in blood pressure) [6]: reduced or prevented the drop in blood pressure

CN=C(N)NCCC[C@H](NC(=O)[C@H](Cc1ccccc1)NC(=O)[C@@H](Cc1ccccc1)NC(=O)[C@H](CO)NC(=O)[C@H](Cc1ccccc1)NC(=O)CNC(=O)[C@@H]1C[C@@H](O)CN1C(=O)[C@@H]1CCCN1C(=O)[C@H](CCCNC(=N)N)NC(=O)[C@H](N)CCCCNC(=NCC(F)(F)F)NCC(F)(F)F)C(=O)O [Compound 1, D-hArg(CH₂CF₃)₂-Arg-Pro-Hyp-Gly-Phe-Ser-D-Phe-Phe-Arg(Me)]
half-life at 60 µM ([3]; mouse, plasma): > 2 h
half-life at 60 µM ([4]; human, plasma): > 2 h

CN=C(N)NCCC[C@H](NC(=O)[C@H](Cc1ccc(OC)cc1)NC(=O)[C@@H](Cc1ccccc1)NC(=O)[C@H](CO)NC(=O)[C@H](Cc1ccccc1)NC(=O)CNC(=O)[C@@H]1C[C@@H](O)CN1C(=O)[C@@H]1CCCN1C(=O)[C@H](CCCNC(=N)N)NC(=O)[C@H](N)CCCNC(=N)N)C(=O)O [Compound 74, D-Arg-Arg-Pro-Hyp-Gly-Phe-Ser-D-Phe-Tyr(Me)-Arg(Me)] (H-[dR]RP[Hyp]GFS[dF]Y(Me)[Arg(Me)]-OH)
half-life at 60 µM ([3]; mouse, plasma): > 2 h
IC50 [1]: 30 nM
half-life at 60 µM ([4]; human, plasma): > 2 h
